Results from EP0555351B1, “OXYSULFONYL CARBAMATES” (WARNER-LAMBERT COMPANY, priority 1990, dated 1992).
Counter-ions that a name gives are not always drawn. Like-named read-outs stand apart in the source and are kept apart here.

Legend:
male Sprague-Dawley rats = experiment: in vivo screen APCC: blood cholesterol in rats after one night on a high fat, high cholesterol diet (PCC); conditions: blood cholesterol vs vehicle (CMC/Tween), dosed at 4 PM, PCC diet containing 0.5% cholic acid overnight, sacrificed at 8 AM, dose not given
Excerpt: In one in vivo screen designated APCC, male Sprague-Dawley rats (200 to 225 g) were randomly divided into treatment groups and dosed at 4 PM with either vehicle (CMC/Tween) or suspensions of compounds in vehicle. The normal chow diet was then replaced with a high fat, high cholesterol diet (designated PCC) containing 0.5% cholic acid. The rats consumed this diet ad libitum during the night and were sacrificed at 8 AM to obtain blood samples for cholesterol analysis using standard procedures. Statistical differences between mean cholesterol values for the same vehicle were determined using analysis of variance followed by Fisher's least significant test.

[1] = biological target: acyl-CoA: cholesterol acyltransferase (ACAT); experiment: in vitro ACAT inhibition test (IAI): formation of radiolabeled cholesterol oleate from radiolabeled oleic acid in intestinal microsomes; assay type: biochemical; conditions: tissue preparation containing rabbit intestinal microsomes, concentration required to inhibit the activity of the enzyme by 50%, read-out: IAI IC₅₀
Experimental: The ability of representative compounds of the present invention to inhibit ACAT was measured using an in vitro test more fully described in F. J. Field and R. G. Salone, Biochemica et Biophysica 712:557-570 (1982). The test assesses the ability of a test compound to inhibit the acylation of cholesterol by oleic acid by measuring the amount of radiolabeled cholesterol oleate formed from radiolabeled oleic acid in a tissue preparation containing rabbit intestinal microsomes.
The data appear in Table 1 where they are expressed in IC₅₀ values; i.e., the concentration of test compound required to inhibit the activity of the enzyme by 50%.

SMILES	% Change (mg/dl) (male Sprague-Dawley rats)	IC50 [1] [µM]	also measured
CC(C)c1cccc(C(C)C)c1OC(=O)NS(=O)(=O)Oc1c(C(C)C)cccc1C(C)C [Example 1, 2,6-Bis(1-methylethyl)phenyl[[2,6-bis(1-methylethyl)phenoxy]sulfonyl]carbamate]	-70%		
Cc1cc(C(C)(C)C)c(OC(=O)NS(=O)(=O)Oc2ccccc2)c(C(C)(C)C)c1 [Example 2, 2,6-Bis(1,1-dimethylethyl)-4-methylphenyl(phenoxysulfonyl)carbamate]	-65%		
CCCCCCOS(=O)(=O)NC(=O)Oc1c(C(C)(C)C)cc(C)cc1C(C)(C)C [Example 3, 2,6-Bis(1,1-dimethylethyl)-4-methylphenyl[(hexyloxy)sulfonyl]carbamate]	-56%		
CCCCCCCCCCCCOS(=O)(=O)NC(=O)Oc1c(C(C)(C)C)cc(C)cc1C(C)(C)C [Example 4]	-65%	52	
CCCCCCCCCCCCOC(=O)NS(=O)(=O)Oc1c(C(C)C)cccc1C(C)C [Example 5, Dodecyl [[2,6-bis(1-methylethyl)phenoxy]sulfonyl]carbamate]	-62%	13	
COC(=O)NS(=O)(=O)Oc1c(C(C)C)cccc1C(C)C [Example 6, Methyl[[2,6-bis(1-methylethyl)phenoxy]sulfonyl]carbamate]		> 100	
CCCCCCOS(=O)(=O)NC(=O)Oc1c(C(C)C)cccc1C(C)C [Example 7, 2,6-Bis(1-methylethyl)phenyl[(hexyloxy)sulfonyl]carbamate]	-52%		
CCCCCCCCCCCCOS(=O)(=O)NC(=O)Oc1c(C(C)C)cccc1C(C)C [Example 8]	-68%	13	
CC(C)c1cccc(C(C)C)c1OS(=O)(=O)NC(=O)Oc1c(C(C)(C)C)cccc1C(C)(C)C [Example 9, 2,6-Bis(1,1-dimethylethyl)phenyl[[2,6-bis(1-methylethyl)phenoxy]sulfonyl]carbamate]	-70%		
CCCCCCCCCCCCOS(=O)(=O)NC(=O)Oc1c(-c2ccccc2)cccc1-c1ccccc1 [Example 10, [1,1':3',1''-Terphenyl]-2'-yl[(dodecyloxy)sulfonyl]carbamate]	-69%	> 10	
CC(C)c1cccc(C(C)C)c1OC(=O)NS(=O)(=O)Oc1ccccc1 [Example 17, 2,6-Bis(1-methylethyl)phenyl(phenoxysulfonyl)carbamate]	-26%		
Cc1cccc(C)c1OS(=O)(=O)NC(=O)Oc1c(C(C)C)cccc1C(C)C [Example 18, 2,6-Bis(1-methylethyl)phenyl[(2,6-dimethylphenoxy)sulfonyl]carbamate]	-58%		
COc1cccc(OC)c1OS(=O)(=O)NC(=O)Oc1c(C(C)C)cccc1C(C)C [Example 19, 2,6-Bis(1-methylethyl)phenyl[(2,6-dimethoxyphenoxy)sulfonyl]carbamate]	-70%		
CC(C)c1cccc(C(C)C)c1OC(=O)NS(=O)(=O)Oc1ccc(F)cc1F [Example 20]	-11%	50	
COc1cc(OC)c(OS(=O)(=O)NC(=O)Oc2c(C(C)C)cccc2C(C)C)c(OC)c1 [Example 21, 2,6-Bis(1-methylethyl)phenyl[(2,4,6-trimethoxyphenoxy)sulfonyl]carbamate]	-61%		
CC(C)c1cccc(C(C)C)c1OC(=O)NS(=O)(=O)Oc1c(F)cccc1F [Example 22]	+9%	38	
CCCCCCCCCCCCCCCCOS(=O)(=O)NC(=O)Oc1c(C(C)C)cccc1C(C)C [Example 23, 2,6-Bis(1-methylethyl)phenyl[(hexadecyloxy)sulfonyl]carbamate]	-59%		
CC(C)c1cccc(C(C)C)c1OC(=O)NS(=O)(=O)Oc1c(C(C)(C)C)cccc1C(C)(C)C [Example 24, 2,6-Bis(1-methylethyl)phenyl[[2,6-bis(1,1-dimethylethyl)phenoxy]sulfonyl]carbamate]	-55%		
COc1cccc(OC)c1OC(=O)NS(=O)(=O)Oc1c(OC)cccc1OC [Example 25, 2,6-dimethoxyphenyl[(2,6-dimethoxyphenoxy)sulfonyl]carbamate]	-10%		
CC(C)(C)c1cccc(C(C)(C)C)c1OC(=O)NS(=O)(=O)Oc1c(C(C)(C)C)cccc1C(C)(C)C [Example 26, 2,6-Bis(1,1-dimethylethyl)phenyl[(2,6-bis(1,1-dimethylethyl)phenoxy)sulfonyl]carbamate]	-18%		
CC(C)c1cccc(C(C)C)c1OC(=O)NS(=O)(=O)Oc1c(C(C)C)cccc1C(C)C [Example 27, 2,6-bis(1-methylethyl)phenyl[[2,6-bis(1-methylethyl)phenoxylsulfonyl]carbamate, 2-hydroxy-N,N,N-trimethylethanaminium salt]	-72%	3.3	
CC(C)c1cccc(C(C)C)c1OC(=O)NS(=O)(=O)Oc1c(C(C)C)cccc1C(C)C [Example 28, 2,6-bis(1-methylethyl)phenyl[[2,6-bis(1-methylethyl)phenoxy]sulfonyl]carbamate, monosodium salt]			IC50 ([1]; monosodium salt): 5.2 µM; % Change (mg/dl) (male Sprague-Dawley rats; monosodium salt): -65%
CCCCCCCCCCCCOS(=O)(=O)NC(=O)Sc1c(C(C)C)cccc1C(C)C [Example 30, S-[2,6-bis(1-methylethyl)phenyl][(dodecyloxy)sulfonyl]carbamothioate]	-9%		
CC(C)c1cccc(C(C)C)c1OC(=O)N(C)S(=O)(=O)Oc1c(C(C)C)cccc1C(C)C [Example 31, 2,6-bis(1-methylethyl)phenyl[[2,6-bis(1-methylethyl)phenoxylsulfonyl]methyl carbamate]	-64%	63	
